Measured values: patent US12023336B2, “Antiviral drug compounds and composition thereof” (priority 2018, dated 2024)

Columns and labels:
[1] = tested on: HIV-1NL4.3; type: cell-based; conditions: for inhibition of replication of HIV-1NL4.3: CEM-GFP (FIG. 9); for therapeutic index compared with MTX-HYD: HIV-1NL4.3
Experimental: Cells were then treated with molecules at different concentrations.

[2] = tested on: HIV-1NL4.3
Experimental: 72-hours post infection supernatant was collected and virus production was determined by p24 antigen capture ELISA.
(§1) Cytotoxicity of MTX-HYD and MTX and their analogues was determined by MTT cell proliferation assay kit, (Roche, Germany) as described earlier. Briefly, cells were seeded at the density of 25,000 cells/well in 96 well plate containing 100 μL of RPMI. Molecules at different concentration was added to the media and incubated in humidified CO2 incubator. Untreated cells were taken as negative control and DMSO treated cells were taken as vehicle control. 48-hours post incubation, 10 μL of MTT (5 mg/mL) was added in each well in dark and incubated at 37° C. for the formation of formazan crystals. 4-hours post incubation, the crystals were dissolved using 100 μL isopropanol and the absorbance was read at 570 nm.
(§2) Cells were then treated with molecules at different concentrations. Untreated cells were taken as negative control and DMSO treated cells were taken as vehicle control.

[3] = tested on: different isolates of HIV-1; test: Anti-HIV activity against different isolates of HIV-1 in CEM-GFP cells and hPBMCs, p24 ELISA; type: cell-based
Experimental: as §2

[4] = tested on: HIV-1NL4.3; test: microbe, parasite or virus in culture; type: cell-based; conditions: Human immunodeficiency virus 1; 10 μM; HIV-1NL4.3 0.1 MOI; TZM-bl cells; luminescence 48 h; read-out: % Inhibition at 10 μM Concentration
Experimental: TZM-bl cells were seeded at the density of 12,000-15,000 cells/well of 96 well plate with 100 μL DMEM (with 10% FBS) in each well. 12-hours post seeding, the media was replaced with fresh DMEM containing HTV-1NL4.3 at 0.1 MOI and cells were treated with different molecules independently at 10 μM working concentration. Cells were incubated in humidified CO2 incubator for 4-hours. After incubation, the media was replaced and cells were washed twice with incomplete DMEM and 100 μL of complete DMEM was added in each wells along with the molecules of interest and incubated at 37° C. in humidified CO2 incubator. 48-hours post incubation, the media was removed and cells were washed twice with 100 μL of 1×PBS. After washing, cells were lysed using cell culture lysis reagent and Steady-Glo substrate was added at 1:1 ration in each well. Luminescence was measured using Molecular Devices M5 (Table 2). % Inhibition was calculated using following formula and plotted.
[formula] (RLU=Relative Luminescence Unit)

[5] = biological target: T1, HIV-1 protease (Human immunodeficiency virus type 1 group M subtype B, UniProt P04585); test: Cell free assay for HIV-1 Protease activity; type: biochemical; conditions: 100 nM
T1 construct: HIV-1 protease enzyme; purchased Biovision, USA
Experimental: (§3) MTX-HYD (100 nM) was tested on viral enzymes Reverse Transcriptase (a), Integrase (b) and Protease (c) in an in vitro cell free assay system. Nevirapine (NVP) (500 nM), Raltegravir (RLT) (1 μM), and Indinavir (IND) (500 nM) were used as the control inhibitors of RT, IN, and PR respectively. Untreated wells (UNT) were considered as negative controls. […] 72-hours post-infection virus production was determined in supernatant by p24 antigen capture ELISA (n=3).
Effect of MTX-HYD on HIV-1 Protease enzyme was determined using HIV-1 Protease Activity Assay Kit, Fluorometric (Biovision, USA) according to manufacturer's protocol. Briefly, in a single step reaction, HIV-1 protease enzyme was diluted in reaction buffer and 10 nmol/well was loaded in 96 well plate in presence or absence of MTX-HYD (100 nM). Indinavir (IND) (500 nM) treated wells were taken as positive control and untreated wells were considered as negative control. 15-minutes post addition, Fluorescence was measured using Molecular Devices M5 at Ex/Em=330/450 nm (FIG. 6).

[6] = biological target: T2, HIV-1 integrase (Human immunodeficiency virus type 1 group M subtype B, UniProt P04585); test: Cell free assay for HIV-1 Integrase activity; type: biochemical; conditions: 100 nM
T2 construct: HIV-1 integrase enzyme; purchased XpressBio, USA
Experimental: as §3
MTX-HYD was tested for its effect, if any, on HIV-1 Integrase enzyme using HIV-1 integrase assay kit (XpressBio, USA) according to manufacturer's protocol. Briefly, biotin coated 5′ Donor Strand (DS) was loaded on to streptavidin coated wells and incubated at 37° C. 30-minutes post incubation, wells were washed and unattached DS was removed. After washing, HIV-1 integrase enzyme and Transfer Strand (TS) were added to the wells in presence of MTX-HYD and incubated at 37° C. Raltegravir treated wells were taken as positive controls whereas untreated wells were taken as negative control and DMSO treated wells were taken as vehicle control. 30-minutes post incubation, wells were washed and 100 μL/well TMB substrate was added and incubated for […] at room temperature. 100 μL/well TMB stop solution was added and absorbance was measured at 450 nm.

[7] = MTT cytotoxicity in different cell types (CEM-GFP, Jurkat J6, U937, hPBMCs); type: cell-based; conditions: human; all the cell types tested (CEM-GFP, Jurkat J6, U937, hPBMCs)
Source text: FIG. 2. depicts that MTX-HYD has similar cytotoxicity profile in different cell types. […] Untreated and DMSO treated cells were taken as controls.

[8] = tested on: NF-kB pathway; test: Immunoblotting of IkB phosphorylation and p65 in HIV-1NL4.3 infected CEM-GFP cells; type: cell-based; conditions: 100 nM, 24, 48, 72 h post infection
Experimental: (a) CEM-GFP cells were infected with 0.5 MOI of HIV-1NL4.3 in presence or absence of MTX-HYD (100 nM). Cells were harvested at different time points (24 h, 48 h and 72 h) post-infection. Phosphorylation of IxB was analysed by immunoblotting. (c) CEM-GFP cells were infected with 0.5MOI of HIV-1NL4.3 in presence or absence of MTX-HYD (100 nM) and nuclear cytoplasmic fractions were prepared using NE-PER nuclear-cytoplasmic fractionation kit. p65 levels in both cytoplasm and nucleus were analyzed by immunoblotting. (b and d) Densitometric analysis of immunoblots using QuantityOne software (n=3).

[9] = biological target: T3, HIV-1 reverse transcriptase (Human immunodeficiency virus type 1 group M subtype B, UniProt P04585); test: RNA dependent DNA polymerase activity assay of HIV-1 RT (RDDP assay); type: biochemical; conditions: 100 nM; cell free
T3 construct: recombinant HIV-1 reverse transcriptase enzyme; purchased Roche, Germany
Experimental: as §3
Effect of MTX-HYD and MTX on RNA dependent DNA polymerase activity of HIV-1 RT enzyme was tested with HIV-1 reverse transcriptase colorimetric assay kit (Roche, Germany) according to manufacturer's protocol. Briefly, 0.5 ng of recombinant HIV-1 reverse transcriptase enzyme in reaction buffer in presence or absence of MTX-HYD were incubated at room temperature for 5-10 min. Nevirapine (500 nM) treated wells were taken as positive control whereas untreated wells were taken as negative control and DMSO treated wells were taken as vehicle control. The reaction mixture containing Poly rA/OligodT (template/primers) and biotin or digoxigenin labelled dUTP nucleotide mixture was added to initiate the reverse transcription at 37° C. for 12-16 hours. […] ABTS substrate was then added to observe the colour reaction, which was read at 405 nm.

[10] = tested on: CEM-GFP cells; test: MTT cell viability assay in CEM-GFP cells; type: cell-based; conditions: concentration at which cell viability was 50%
Experimental: (a-b) CEM-GFP cells were treated with different concentrations of MTX-HYD and MTX and cytotoxicity was determined by MTT cell viability assay. […] (c-d) CEM-GFP cells were infected with 0.5 MOI (Multiplicity of infection) of HIV-1NL4.3 virus in presence of MTX-HYD or MTX. 72-hours post infection supernatant was collected and virus production was determined by p24 antigen capture ELISA.
as §1

| IC50 ([1]; CEM-GFP cells, HIV-1NL4.3 0.5 MOI, p24 ELISA 72 h post infection) [nM] | Structure (SMILES) | inhibition of replication of HIV-1NL4.3 ([1]; 100 nM) | TI (Therapeutic index = CC50/IC50) ([1]; CEM-GFP cells) | therapeutic index compared with MTX-HYD ([1]; CEM-GFP cells) | therapeutic index (TI) in hPBMCs ([2]; HIV-1NL4.3 0.5 MOI) | inhibition of HIV-1NL4.3 replication in primary cells ([2]; hPBMCs) | anti-HIV activity across virus isolates ([3]; 25 nM, 0.5 MOI of different isolates) | Therapeutic Index compared with MTX-HYD, other virus isolates ([3]; HIV-1IndieC, HIV-1IIIB, HIV-1ADA, HIV-189.6) | stage of virus life cycle at which it acts ([1]; 100 nM, treated at different stages of virus infection, CEM-GFP) | anti-HIV potential better than MTX ([1]; versus MTX (FIG. 1)) [fold] | inhibition at 10 µM [4] [%] | effect on Protease [5] | effect on Integrase [6] | anti-HIV activity across virus isolates and viral loads ([3]; 0.5 MOI of different isolates, 0.01, 0.1 and 1 MOI of HIV-1NL4.3) | CC50 at 48 h [7] [µM] | IkB phosphorylation [8] | effect on Reverse Transcriptase [9] | CC50 [10] [µM] |
| --- | --- | --- | --- | --- | --- | --- | --- | --- | --- | --- | --- | --- | --- | --- | --- | --- | --- | --- |
|  | [2H]C([2H])([2H])N(Cc1cnc2nc(N)nc(N)c2n1)c1ccc(C(=O)NC(CCC(=O)OC)C(=O)OC)cc1 (stereo not drawn) [MTX-methyl-d3-Dimethyl Ester, Methotrexate-methyl-d3-Dimethyl ester] | inhibits replication of HIV-1NL4.3 | 4781.81 | higher therapeutic index than MTX-HYD | significantly high therapeutic index (TI) | with high efficiency | not virus isolate specific phenomena | higher Therapeutic Index (TI) than Methotrexate Hydrate (MTX-HYD) |  |  |  |  |  |  |  |  |  |  |
|  | CN(Cc1cnc2nc(N)nc(N)c2n1)c1ccc(C(=O)N[C@@H](CCC(=O)O)C(=O)O)cc1 [Methotrexate Hydrate] |  |  |  |  |  |  |  | works at an early stage of the life cycle | ~10 | 98.5 | does not target viral enzymes | does not target viral enzymes | not virus isolate and viral load dependent phenomena | 50 to 75 | may inhibit IkB phosphorylation | does not target viral enzymes |  |
| 32.4 ± 0.87 | COC(=O)CC[C@H](NC(=O)c1ccc(N(C)Cc2cnc3nc(N)nc(N)c3n2)cc1)C(=O)OC [MTX Dimethyl Ester] | inhibits replication of HIV-1NL4.3 | 1675.3 | higher therapeutic index than MTX-HYD |  |  |  |  |  |  |  |  |  |  |  |  |  | 54.3 ± 3.78 |
